The source of these data is US20260306453A1, “FORMULATIONS CONTAINING TRYPTAMINE DERIVATIVES AND USES THEREOF” (priority 2023, published 2026).

Where “and” joins values, the source holds several entries; their conditions need not be identical. Equal values may be shown once. Read-outs that look alike come from different tables or passages of the source.

Data set [1] relates to metabotropic glutamate receptor 2 (mGlu2). Briefly: Brain tissue mGlu2 protein expression in prefrontal cortex after in vivo treatment. Details: species or system mouse. The following applies: male C57BL/6J mice, 25 mg/kg daily 18 days. The source says:
The expression of metabotropic glutamate receptor 2 (mGlu2) in the prefrontal cortex was quantified following in vivo mouse studies. Regulation of the metabotropic glutamate receptor 2 (mGlu2) levels in alcohol seeking rats can reduce relapse behavior.

The subject of data set [2] is TNFα. Briefly: TNFα quantification in HT22 mouse hippocampal neuronal cells. Type of data set: cell-based. The following applies: LPS stressed, HBr salt, 24 hours. The source says:
(§1) For neuroplasticity, brain-derived neurotrophic factor (BDNF; FIGS. 3B1 and 3B2) and for inflammation, cytokine interleukin 6 (IL-6; FIGS. 3A1 and 3A2) and TNFα (FIGS. 3C1 and 3C2), were quantified with and without proinflammatory treatment of lipopolysaccharide (LPS). LPS-induced inflammation is a model for neuroinflammation similar to what is seen in patients with neurodegenerative disorders. […] IL-6 is elevated in patients with frontotemporal dementias and other neurodegenerative disorders and especially in patients with disinhibition.

The subject of data set [3] is cytokine interleukin 6 (IL-6). Briefly: IL-6 quantification in HT22 mouse hippocampal neuronal cells. The following applies: LPS stressed, HBr salt, 24 hours. Type of data set: cell-based.
Excerpt: as §1

The subject of data set [4] is brain-derived neurotrophic factor (BDNF). The data set is described as follows: BDNF quantification in HT22 mouse hippocampal neuronal cells. The format is cell-based. The following applies: HT22 control cells (no LPS); HBr salt; 24 hours.
Excerpt: as §1

The format of data set [5] is in vivo. Conditions: rat, IV 1 mg/kg of 2-Br-4-AcO-DMT * HBr, 4 h, individual rat. How it is done:
(§2) The rat PK (FIG. 6) was assessed with an oral dose of 10 mg/kg and intravenously at 1 mg/kg. […] The PK and brain concentrations were assessed in cohorts of 3 […] for each dosing group and between the plasma vs brain concentrations. For 10 mg/kg oral dosing, the PK parameters are outlined in Table 16 below.
The brain vs. plasma concentrations from oral and IV doses of 2-Br-4-ACO-DMT*HBr are listed in Table 18 via detection of active 2-Br-4-OH-DMT.

Data set [6] is classed as in vivo. Conditions: rat. The procedure: as §2
1 mg/kg IV dosing, the PK parameters are outlined in Table 17.

For data set [7], the system named is mice. The data set is described as follows: Reduction in alcohol consumption. Type of data set: in vivo, mouse. Conditions: addicted mice. The source says: In order to test for the ability to curb alcohol consumption, mice were given 8-20%/alcohol ab libitum for two weeks. The results of alcohol consumption were monitored over two weeks after daily dosing of test compound in relation to positive control (4-AcO-DMT). Further studies extended the experiment to 60 days for three different doses while only dosing the mice every 3 days.

For the molecule `CC(=O)Oc1cccc2[nH]c(Br)c(CCN(C)C)c12` [2-Br-4-AcO-DMT, 2-bromo-3-(2-(dimethylamino)ethyl)-1H-indol-4-yl acetate], the “mGluR2 expression reduction compared with psilacetin” value in data set [1] (n=5-6, relative to actin, normalized to vehicle) is listed as “exceeding the effect of psilacetin”. For the same molecule, the “mGluR2 expression, unstressed mice” value in data set [1] (no-stress, prefrontal cortex) is “reduced expression of mGluR2”. Moreover, the “mGluR2 expression, stressed mice” value in data set [1] (tube restraint, prefrontal cortex) was “reduced expression of mGluR2”. Besides, the TNFα level result in data set [2] is “reduces IL-6 and TNFα in the stressed LPS cells”. The IL-6 level entry in data set [3] is reported as “reduces IL-6”. For the same molecule, in data set [4], the BDNF level entry was “increases neuroplasticity marker BDNF in the control cells”.

As to `CN(C)CCc1c(Br)[nH]c2cccc(O)c12` [2-Br-4-OH-DMT, 2-bromo-3-(2-(dimethylamino)ethyl)-1H-indol-4-ol], the “Plasma Concentration” value in data set [5] is recorded as “BLOQ”. The “AUC Extr” value in data set [6] (1 mg/kg IV of 2-Br-4-AcO-DMT * HBr, individual rat, 1 mg/kg) was 7.66% and 4.06% and 4.54%; in data set [6] (1 mg/kg IV of 2-Br-4-AcO-DMT * HBr, mean of 3 rats) it was 5.42%; in data set [6] (10 mg/kg PO of 2-Br-4-AcO-DMT * HBr, mean of 3 rats), 4.50%.

Take `CC(=O)Oc1cccc2[nH]c(Br)c(CCN(C)C)c12` [drawing 37]: the “Alcohol Consumption, effective dose range” value in data set [7] is 5 to 40 mg/kg.
